Measured values: patent US20050222146A1, “N-substituted-n-sulfonylaminocyclopropane compounds and pharmaceutical use thereof” (priority 2003, published 2005)

Legend:
MMP-1 = biological target: T1, MMP-1 (Homo sapiens, UniProt P03956); test: MMP-1 inhibitory action, Type I collagen Activity Measurement kit (FITC-labeled collagen type I); assay type: biochemical; settings: 37° C. for 3 hr, read-out: Experimental Example 2 IC50 MMP1
T1 sequence (P03956 100-469): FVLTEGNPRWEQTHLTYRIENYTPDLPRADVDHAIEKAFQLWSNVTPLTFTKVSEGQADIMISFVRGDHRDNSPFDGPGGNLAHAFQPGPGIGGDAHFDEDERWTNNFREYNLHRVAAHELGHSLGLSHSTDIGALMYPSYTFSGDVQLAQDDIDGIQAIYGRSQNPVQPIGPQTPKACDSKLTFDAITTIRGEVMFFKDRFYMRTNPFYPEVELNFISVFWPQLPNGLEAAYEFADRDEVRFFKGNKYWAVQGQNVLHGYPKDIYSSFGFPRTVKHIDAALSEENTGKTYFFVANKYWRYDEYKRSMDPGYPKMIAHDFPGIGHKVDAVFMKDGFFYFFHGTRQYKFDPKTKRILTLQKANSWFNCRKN
Experimental: For MMP-1 Assay, Type I collagen Activity Measurement kit (YAGAI YU-72013) modified to a 96-well plate format was used.
The principle of the kit is based on the property of collagen that becomes soluble in ethanol after being cleaved by MMP-1.
(§1) The enzyme and substrate were diluted with Tris-HCl buffer, and test compounds were diluted with dimethyl sulfoxide (DMSO).
The enzyme and test compounds were added into 96-well plate, and fluorescein isothiocianate (FITC)-labeled collagen type I was added as a substrate and the mixture was incubated at 37° C. for 3 hr.
The reaction was terminated by addition of Tris-HCl buffer containing ethanol. After centrifugation, the supernatant containing denatured substrate was transferred to another 96-well plate. The collagenase activity of MMP-1 was determined by measuring FITC fluorescence intensity (excitation wavelength 485 nm, emission wavelength 530 nm) of each well. The inhibitory activity of the compound in each well (%) was calculated based on the values of enzyme-free well and inhibitor-free well. The inhibitory activity of the compound was represented as IC50 (μM).

aggrecanase-1 = biological target: T2, aggrecanase-1 (Homo sapiens, UniProt O75173); test: Aggrecanase-1 inhibitory action, Particle Assay (GAG release from aggrecan-containing polyacrylamide particles); assay type: biochemical; settings: 37° C. for 15 hr, read-out: Experimental Example 1 IC50 AG1
T2 sequence (O75173 213-837): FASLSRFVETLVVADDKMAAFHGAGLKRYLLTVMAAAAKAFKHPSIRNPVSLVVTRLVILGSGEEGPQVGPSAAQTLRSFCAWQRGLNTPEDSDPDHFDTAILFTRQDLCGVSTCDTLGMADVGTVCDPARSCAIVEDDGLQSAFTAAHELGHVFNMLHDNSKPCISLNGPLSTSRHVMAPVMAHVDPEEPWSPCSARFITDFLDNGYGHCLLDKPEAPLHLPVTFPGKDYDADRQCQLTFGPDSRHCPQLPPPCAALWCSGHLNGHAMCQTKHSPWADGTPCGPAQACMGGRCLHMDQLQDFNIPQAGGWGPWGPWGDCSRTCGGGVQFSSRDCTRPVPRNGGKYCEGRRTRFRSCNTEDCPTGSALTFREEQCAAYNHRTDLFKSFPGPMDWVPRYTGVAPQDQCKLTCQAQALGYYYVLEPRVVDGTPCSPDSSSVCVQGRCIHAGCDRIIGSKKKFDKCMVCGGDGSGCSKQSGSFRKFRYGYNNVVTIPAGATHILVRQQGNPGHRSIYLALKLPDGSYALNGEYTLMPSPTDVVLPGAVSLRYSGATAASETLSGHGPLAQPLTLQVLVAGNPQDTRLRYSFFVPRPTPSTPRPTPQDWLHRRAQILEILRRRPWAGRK
Experimental: Aggrecanase-1 Inhibitory Action
Particle Assay was used for determination of aggrecanase activity.
as §1
Test compounds and the enzyme were added into 96-well plate, and polyacrylamide particles containing aggrecan were added as a substrate and the mixture was incubated at 37° C. for 15 hr.
After incubation; the supernatant was transferred to another plate, and mixed with 1,9-dimethylmethylene blue. The absorbance at 595 nm was measured to quantify the amount of glycosaminoglycan (GAG) released in the reaction supernatant. Whale chondroitin sulfate was used as the standard of GAG. The inhibitory activity of the compound in each well (%) was calculated based on the values of enzyme-free well and inhibitor-free well. The inhibitory activity of the compound was represented as IC50 (μM).

Row | SMILES | IC50 (MMP-1) | IC50 (aggrecanase-1)
1 | CC(C)COc1cccc([C@@H]2C[C@@]2(C(=O)O)N(CC(=O)O)S(=O)(=O)c2ccc(-c3ccc(Cl)cc3)cc2)c1 (relative stereo) [Example 1-47, (1R*,2S*)-1-[carboxymethyl-(4′-chloro-biphenyl-4-sulfonyl)-amino]-2-(3-isobutoxy-phenyl)-cyclopropanecarboxylic acid] | ≥ 10 µM | < 0.1 µM
2 | O=C(O)CN([C@]1(C(=O)O)C[C@H]1c1cccc(OC2CCCCC2)c1)S(=O)(=O)c1ccc(-c2ccc(Cl)cc2)cc1 (relative stereo) [Example 1-48, (1R*,2S*)-1-[carboxymethyl-(4′-chloro-biphenyl-4-sulfonyl)-amino]-2-(3-cyclohexyloxy-phenyl)-cyclopropanecarboxylic acid] | ≥ 10 µM | < 0.1 µM
3 | O=C(O)c1cccc(CN([C@]2(C(=O)O)C[C@H]2c2cccc(Oc3ccccc3)c2)S(=O)(=O)c2ccc(-c3ccc(Cl)cc3)cc2)c1 (relative stereo) [Example 1-51, (1R*,2S*)-3-{[[1-carboxy-2-(3-phenoxy-phenyl)-cyclopropyl]-(4′-chloro-biphenyl-4-sulfonyl)-amino]-methyl}-benzoic acid] | ≥ 10 µM | < 0.1 µM
4 | CCOC(=O)CN([C@]1(C(=O)O)C[C@H]1c1cccc(Oc2ccccc2)c1)S(=O)(=O)c1ccc(-c2ccc(Cl)cc2)cc1 (relative stereo) [Example 1-52, (1R*,2S*)-1-[(4′-chloro-biphenyl-4-sulfonyl)-ethoxycarbonylmethyl-amino]-2-(3-phenoxy-phenyl)-cyclopropanecarboxylic acid] | ≥ 10 µM | < 1 µM
5 | CN([C@]1(C(=O)O)C[C@H]1c1cccc(Oc2ccccc2)c1)S(=O)(=O)c1ccc(-c2ccc(Cl)cc2)cc1 (relative stereo) [Example 1-53, (1R*,2S*)-1-[(4′-chloro-biphenyl-4-sulfonyl)-methyl-amino]-2-(3-phenoxy-phenyl)-cyclopropanecarboxylic acid] | ≥ 10 µM | < 1 µM
6 | O=C(O)c1ccc(CN([C@]2(C(=O)O)C[C@H]2c2ccccc2)S(=O)(=O)c2ccc(-c3ccc(Cl)cc3)cc2)o1 (relative stereo) [Example 1-55, 5-{[((1R*,2S*)-1-carboxy-2-phenyl-cyclopropyl)-(4′-chloro-biphenyl-4-sulfonyl)-amino]-methyl}-furan-2-carboxylic acid] | ≥ 10 µM | < 1 µM
7 | O=C(O)c1cccnc1CN([C@]1(C(=O)O)C[C@H]1c1ccccc1)S(=O)(=O)c1ccc(-c2ccc(Cl)cc2)cc1 (relative stereo) [Example 1-56, 2-{[((1R*,2S*)-1-carboxy-2-phenyl-cyclopropyl)-(4′-chloro-biphenyl-4-sulfonyl)-amino]-methyl}-nicotinic acid] | ≥ 10 µM | < 1 µM
8 | O=C(O)c1csc(CN([C@]2(C(=O)O)C[C@H]2c2ccccc2)S(=O)(=O)c2ccc(-c3ccc(Cl)cc3)cc2)n1 (relative stereo) [Example 1-60, 2-{[((1R*, 2S*)-1-carboxy-2-phenyl-cyclopropyl)-(4′-chloro-biphenyl-4-sulfonyl)-amino]-methyl}-thiazole-4-carboxylic acid] | ≥ 10 µM | < 1 µM
9 | O=C(CN([C@]1(C(=O)O)C[C@H]1c1ccccc1)S(=O)(=O)c1ccc(-c2ccc(Cl)cc2)cc1)Nc1nnn[nH]1 (relative stereo) [Example 1-61, (1R*,2S*)-1-{(4′-chloro-biphenyl-4-sulfonyl)-[(1H-tetrazol-5-ylcarbamoyl)-methyl]-amino}-2-phenyl-cyclopropanecarboxylic acid] | ≥ 10 µM | < 1 µM
10 | CS(=O)(=O)Nc1cccc(CN([C@]2(C(=O)O)C[C@H]2c2ccccc2)S(=O)(=O)c2ccc(-c3ccc(Cl)cc3)cc2)c1 (relative stereo) [Example 1-62, (1R*,2S*)-1-[(4′-chloro-biphenyl-4-sulfonyl)-(3-methanesulfonylamino-benzyl)-amino]-2-phenyl-cyclopropanecarboxylic acid] | ≥ 10 µM | < 1 µM
11 | O=C(O)[C@@]1(N(CCNS(=O)(=O)C(F)(F)F)S(=O)(=O)c2ccc(-c3ccc(Cl)cc3)cc2)C[C@H]1c1ccccc1 (relative stereo) [Example 1-63, (1R*,2S*)-1-[(4′-chloro-biphenyl-4-sulfonyl)-(2-trifluoromethanesulfonylamino-ethyl)-amino]-2-phenyl-cyclopropanecarboxylic acid] | ≥ 10 µM | < 1 µM
12 | O=C(O)CN([C@]1(C(=O)O)C[C@H]1c1cccc(O)c1)S(=O)(=O)c1ccc(-c2ccc(Cl)cc2)cc1 (relative stereo) [Example 1-66, (1R*,2S*)-1-[carboxymethyl-(4′-chloro-biphenyl-4-sulfonyl)-amino]-2-(3-hydroxy-phenyl)-cyclopropanecarboxylic acid] | ≥ 10 µM | < 0.1 µM
13 | CC(C)(C)OC(=O)N1CCC(Oc2cccc([C@H]3C[C@]3(C(=O)O)N(CC(=O)O)S(=O)(=O)c3ccc(-c4ccc(Cl)cc4)cc3)c2)CC1 (relative stereo) [Example 1-67, 4-(3-{(1R*,2S*)-2-Carboxy-2-[carboxymethyl-(4′-chloro-biphenyl-4-sulfonyl)-amino]-cyclopropyl}-phenoxy)-piperidine-1-carboxylic acid tert-butyl ester] | ≥ 10 µM | < 0.1 µM
14 | O=C(O)CN([C@]1(C(=O)O)C[C@H]1c1cccc(OC2CCNCC2)c1)S(=O)(=O)c1ccc(-c2ccc(Cl)cc2)cc1 (relative stereo) [Example 1-68, (1R*,2S*)-1-[carboxymethyl-(4′-chloro-biphenyl-4-sulfonyl)-amino]-2-[3-(piperidin-4-yloxy)-phenyl]-cyclopropanecarboxylic acid] | ≥ 10 µM | < 1 µM
15 | O=C(O)c1cccn1CCN([C@]1(C(=O)O)C[C@H]1c1ccccc1)S(=O)(=O)c1ccc(-c2ccc(Cl)cc2)cc1 (relative stereo) [Example 1-69, 1-{2-[((1R*,2S*)-1-carboxy-2-phenyl-cyclopropyl)-(4′-chloro-biphenyl-4-sulfonyl)-amino]-ethyl}-1H-pyrrole-2-carboxylic acid] | ≥ 10 µM | < 1 µM
16 | CC(C)(C)OC(=O)N1CCC([C@H]2C[C@]2(C(=O)O)N(Cc2cccc(C(=O)O)c2)S(=O)(=O)c2ccc(-c3ccc(Cl)cc3)cc2)CC1 (relative stereo) [Example 1-70, 4-{(1R*,2S*)-2-carboxy-2-[(3-carboxy-benzyl)-(4′-chloro-biphenyl-4-sulfonyl)-amino]-cyclopropyl}-piperidin-1-carboxylic acid tert-butyl ester] | ≥ 10 µM | < 1 µM
17 | O=C(O)[C@@]1(N(Cc2nsc(=O)[nH]2)S(=O)(=O)c2ccc(-c3ccc(Cl)cc3)cc2)C[C@H]1c1ccccc1 (relative stereo) [Example 1-71, (1R*,2S*)-1-[(4′-chloro-biphenyl-4-sulfonyl)-(5-oxo-4,5-dihydro-[1,2,4]thiadiazol-3-ylmethyl)-amino]-2-phenyl-cyclopropanecarboxylic acid] | ≥ 10 µM | < 1 µM
18 | O=C(O)[C@@]1(N(Cc2noc(=O)[nH]2)S(=O)(=O)c2ccc(-c3ccc(Cl)cc3)cc2)C[C@H]1c1cccc(Oc2ccccc2)c1 (relative stereo) [Example 1-72, (1R*,2S*)-1-[(4′-chloro-biphenyl-4-sulfonyl)-(5-oxo-4,5-dihydro-[1,2,4]oxadiazol-3-ylmethyl)-amino]-2-(3-phenoxy-phenyl)-cyclopropanecarboxylic acid] | ≥ 10 µM | < 0.1 µM
